In experiment [1] the test system is TNF, IFNγ, and granzyme B. The experiment can be described thus: Cytokine levels in supernatants of dissociated human tumor cell cultures with ATP. As to conditions: 500 μM ATP; Compound 1 300 nM; culture supernatants. It is filed as cell-based. How it is done: Human tumors were dissociated, and cells were CFSE-labelled and stimulated with CD3/CD28 microbeads and IL-2 in the presence of 500 μM of ATP as a source of adenosine.
Human tumor pieces were rinsed with cold PBS and cut into 1 to 2 mm fragments with a scalpel blade and transferred into GentleMACS C tubes. Dissociation of the tissue was completed with the Tumor Dissociation kit (Miltenyi Biotec) according to the manufacturer's instruction. Briefly, 5 mL of dissociation solution—containing 200 μL of enzyme H, 20 μL of enzyme R and 25 μL of enzyme A and RPMI until 5 mL—was added per gram of tumor. The tube was placed in the gentleMACS dissociator and the 1st program was run. An incubation step of 30 minutes at 37° C. was applied with rotation (MACSmix tube rotator). After this incubation, a quick centrifugation (30×rcf, 1 min) was performed, the supernatant containing dissociated cells was collected in a new tube containing FBS (30% of the total volume with supernatant) and placed at 4° C. […] A short centrifugation was performed, the cells in supernatant were pooled with the 1st collection and filtered through a 100 μm cell strainer which was washed with 10 mL RPMI 10% FBS 2% P/S. After centrifugation at 350×rcf for 10 min, cells were resuspended in 20 mL RPMI 10% FBS 2% P/S and counted with a haemocytometer. […]

The next experiment relates to MDA-MB-231 cells. Kind of experiment: MDA-MB-231 subcutaneous tumor model in humanized NCG mice. The conditions noted are these: day 51; Compound 1 30 mg/kg i.p. twice a day; nivolumab 10 mg/kg i.p. every 5 days. It is filed as in vivo, mouse. How it is done: The anti-tumor therapeutic efficacy of Compound 1 monotherapy, nivolumab monotherapy, and Compound 1-nivolumab combination therapy was assessed in ‘humanized’ mice with subcutaneous tumors resulting from the subcutaneous injection of MDA-MB-231 cells, a human triple-negative breast cancer cell line.
Human cell line xenograft experiments were performed at Transcure (France) and all associated animal procedures were reviewed and approved by the local ethics committee. The experiment was carried out with the NOD-Prkdc^em26cd52Il2rg^em26cd22/NjuCrl immunodeficient mouse strain (NCG from Charles River Laboratories, Wilmington, MA, USA). Four-week-old immunodeficient NCG mice were engrafted with cord-blood-derived human CD34^+ hematopoietic stem and progenitor cells (French Blood Institute, Paris, France) 2 days after chemical myeloablative treatment. Fourteen weeks after cell injection, engraftment level was monitored with the analysis of human CD45^+ cells among total blood leukocytes by flow cytometry (Attune, Life Technologies/Thermo Fisher Scientific, Waltham, MA, USA). […]
All the animals used were monitored daily, checking their clinical signs of distress and body weight and tumors were measured three times a week using an electronic caliper. The tumor volume was determined by applying the formula Length×(Width)^2×0.5. […]

From patent publication US20260284074A1, “ENT1 Inhibitors in Combination with Checkpoint Inhibitors” (iTeos Belgium SA, priority 2023, published 2026) come the findings set out here.

For the compound `COc1cc(C(=O)O[C@@H]2CCCOc3cc(cc(OC)c3OC)C(=O)NCCCN3CCCN(CC2)CC3)cc(OC)c1OC` [Compound 1, (12R)-7^4,7^5-dimethoxy-6-oxo-8-oxa-5-aza-1(1,4)-diazepana-7(1,3)-benzenacyclotetradecaphane-12-yl 3,4,5-trimethoxybenzoate], in experiment [1], the “Production of TNF, IFNγ, and granzyme B suppressed by ATP” value is “restored, to varying extents”. Besides, the “Tumor volume compared with vehicle group” value in the experiment with MDA-MB-231 cells is given as “not statistically significantly different”.
